Assay results as given in patent US20080312250A1, “Combination Comprising a Bcrp Inhibitor and 4- (4-Methylpiperazin-1-Ylmethyl)-N-[4-Methyl-3- (4-Pyridin-3-Yl) Pyrimidin-2-Ylamino) Phenyl] -Benzamide” (THE NETHERLANDS CANCER INSTITUTE, priority 2005, published 2008).

Assays:
murine Bcrp1 = molecular target: T1, murine Bcrp1 (Mus musculus, UniProt Q7TMS5); assay: Transport of Compound I across MDCKII-Bcrp1 monolayers; format: in vitro ADME
T1 construct: expressed in transfected cells; host or cells: MDCKII (Madin-Darby canine kidney strain II) cells, stably transfected
T1 sequence (Q7TMS5 1-657): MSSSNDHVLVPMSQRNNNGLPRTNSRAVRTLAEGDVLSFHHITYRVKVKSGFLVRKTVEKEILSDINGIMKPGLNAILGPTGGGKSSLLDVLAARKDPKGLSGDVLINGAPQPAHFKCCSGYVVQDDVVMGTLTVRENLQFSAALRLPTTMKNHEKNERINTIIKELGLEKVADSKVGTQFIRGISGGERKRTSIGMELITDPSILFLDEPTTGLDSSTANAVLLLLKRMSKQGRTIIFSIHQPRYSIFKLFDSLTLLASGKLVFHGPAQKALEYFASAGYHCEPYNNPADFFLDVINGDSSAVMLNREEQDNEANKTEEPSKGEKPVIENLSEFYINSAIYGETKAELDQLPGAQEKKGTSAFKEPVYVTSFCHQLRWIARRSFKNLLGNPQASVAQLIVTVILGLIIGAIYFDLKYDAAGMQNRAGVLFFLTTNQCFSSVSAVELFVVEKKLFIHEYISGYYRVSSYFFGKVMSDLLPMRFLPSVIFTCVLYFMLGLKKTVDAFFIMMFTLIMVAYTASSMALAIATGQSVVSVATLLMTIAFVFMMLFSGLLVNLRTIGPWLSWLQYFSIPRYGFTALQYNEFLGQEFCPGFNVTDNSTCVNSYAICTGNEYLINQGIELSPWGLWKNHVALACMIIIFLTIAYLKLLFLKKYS
Method: Transport across MDCKII monolayers. […] Animals.
Transport of Compound I across MDCKII monolayers. […] To exclude any contribution of P-gp (12), the P-gp inhibitor zosuquidar (5 μM) is added (18).

Bcrp1 = molecular target: T2, Bcrp1 (Mus musculus, UniProt Q7TMS5); assay: Effect of pantoprazole and elacridar on Bcrp1-mediated transport of Compound I in MDCKII transfected cells; format: in vitro ADME, murine; conditions: 1 μM Compound I, zosuquidar 5 μM added for pantoprazole, data not shown
T2 construct: expressed in transfected cells; host or cells: MDCKII (Madin-Darby canine kidney strain II) cells, stably transfected
T2 sequence (Q7TMS5 1-657): T1 sequence (Q7TMS5 1-657)
Method: Transport across MDCKII monolayers. The MDCKII (Madin-Darby canine kidney strain II) cells are cultured in Dulbecco's Modified Eagle's Medium supplemented with 10% fetal calf serum and 100 units penicillin/streptomycin per ml. Cells are grown at 37° C. with 5% CO2 under humidifying conditions. […] Animals. […] Mice are housed and handled according to institutional guidelines complying with Dutch legislation.
In the experiments in which the effect of pantoprazole is studied, the P-gp inhibitor zosuquidar (5 μM) is added to exclude any contribution of P-gp.

P-gp = conditions: single dose of elacridar; approximately; cited from earlier work

net active transport of Compound I by Bcrp1 (murine Bcrp1; 1 and 10 μM Compound I, MDCKII-Bcrp1 and parental cells, P-gp inhibitor zosuquidar 5 μM added) | concentration above which Bcrp1 transport of Compound I is saturable (murine Bcrp1; MDCKII-Bcrp1, zosuquidar 5 μM added) | effect on Bcrp1-mediated transport of Compound I (Bcrp1) | SMILES | P-gp inhibition (P-gp)
approximately 20 % per h | above 10 μM | – | Cc1ccc(NC(=O)c2ccc(CN3CCN(C)CC3)cc2)cc1Nc1nccc(-c2cccnc2)n1 [Compound I] | –
– | – | inhibit | COc1cc2c(cc1OC)CN(CCc1ccc(NC(=O)c3cccc4c(=O)c5cccc(OC)c5[nH]c34)cc1)CC2 [elacridar] | 70-80%
